Values joined by “and” are separate entries in the source; they are usually repeats but may differ in a detail not shown here. Equal values may be shown once. Read-outs that look alike come from different tables or passages of the source.
How the values were obtained:
[1] = test system: Interleukin-1α; experiment: Inhibition of the synthesis of Interleukin 1 (IL1α) induced by LPS in mice, serum ELISA; format: in vivo, BALB/C mice
Experimental: Study of the immunosuppressive activity of the derivative compound 4 on the inhibition of the synthesis of Interleukin 1 "IL1" in mice.
The secretion of IL1 is induced by the parenteral administration of lipopolysaccharides "LPS" to BALB/C mice.
Compound 4 (P-IV) is dissolved in physiological saline. It is assayed quantitatively by spectrophotometry at 280 nm (assay of Tryptophan) which allows an accurate assay of "P-IV" in the solutions which are stored at -25° C.
Extracts of Escherichia Coli serotype 0127 - B8 -"Ref. SIGMA - L3137" are used at the concentration of 6 mg/ml in physiological saline.
BALB/C mice--females--5 weeks old, obtained from IFFA - CREDO subjected to a photoperiod of 12 hours of light per 24 hours water and feed ad libitum
the other based on a single treatment, consequently much more rapid, will serve for the control of the PIV activity ("DAYNES" technique).
The animals in the control batches receive an injection of 0.2 ml of physiological saline subcutaneously, the animals in the PIV batches receive an injection of the product at various dosages subcutaneously. This treatment takes place for 5 days.
Forty-eight hours after the treatment with PIV, a sublethal dose of LPS (1.2 mg in 0.2 ml of physiological saline) is injected intraperitoneally into each animal in the PIV batches and in the positive control batch.
One hundred and eighty minutes later, all the mice were punctured through the retroorbital sinuses on dry tubes. As soon as the blood coagulates, the clot is detached. The blood is centrifuged for 10 minutes at 1800 g at a temperature of 10° C.
40 μg of PIV in 0.2 ml of physiological saline--that is to say 200 μg/ml
25 Ag of PIV in 0.2 ml of physiological saline--that is to say 125 μg/ml
10 μg of PIV in 0.2 ml of physiological saline--that is to say 50 μg/ml
The animals in the control batches receive an injection of 0.2 ml of physiological saline intravenously.
The animals in the PIV batches receive an injection of the product at various dosages intravenously. (Caudal vein)
Immediately afterwards, a sublethal dose of LPS (1.2 mg years [sic] 0.2 ml of physiological saline) is injected intraperitoneally into each animal in the PIV batches and into the positive control batches.
One hundred and eighty minutes later, all the mice are punctured through the retroorbital sinuses on dry tubes. As soon as the blood coagulates, the clot is detached. The blood is centrifuged for 10 minutes at 1800 g at a temperature of 10° C. The sera once collected are frozen at -25° C.
The Interleukin-1α contained in these sera is assayed 24 hours after the sampling with the murine IL1α ELISA assay Kit (ref. 1900 GENZYME)
Rapid description of the Kit: the method used for this assay is of the sandwich type.
A first anti-murine IL1α monoclonal antibody is used
The samples are then deposited, then a second biotinylated anti-IL1α antibody is caused to react.
The coloured reaction uses tetramethylbenzidine (TMB)
The reading is made at 450 nm on a MULTISKAN MCC 340 MKII (TITERTEK) plate reader.

[2] = test system: embryonic cells (melanoblasts, neuroblasts, myoblasts, epidermal cells, fibroblasts, mesenchymatous cells); format: cell-based, Triton embryo and Axolotl embryo
Experimental: Qualitative and quantitative analysis of the effects of PIV on melanocyte differentiation in in vitro culture. Sample to be analyzed--compound 4=PIV Embryonic cells isolated in in vitro culture in a defined, purely saline medium (standard culture conditions: 2 ml of medium/culture). The embryonic territory is collected (from Triton embryo and from Axolotl embryo) from the first stage of melanogenesis, immediately after melanocyte induction. At this early stage of embryonic development, the neural swelling, which has just become individualized, contains all the melanoblastic precursors. The culture of the cells of the neural swelling and of the underlying mesoderm makes it possible to coculture (under completely identical conditions) the melanoblasts with various other cell precursors belonging to various categories: neuroblasts, myoblasts, epidermal cells, fibroplasts [sic], mesenchymatous cells. This allows a comparative kinetic study, on a living material, of the effects of PIV on the melanocytes and various other cell types. Duration of the culture (primary culture): 2 to 3 weeks at 20° C. The cell differentiation appears morphologically from the 3rd day and is practically complete at 8-10 days of culture. A series of PIV concentrations was analyzed: 0.01 μg/ml; 0.1 μg/ml; 1 μg/ml; and 10 μg/ml The following 2 doses were therefore selected for this work: 0.1 and 1 μg/ml. 1 single treatment during the innoculation of cultured cells. After their attachment (3 days at 20° C.), the medium is replaced with fresh medium without the Peptide PIV 1 treatment during the innoculation and a 2nd treatment during the change of medium. We developed two melanin assays: by HPLC with electrochemical detection by spectrophotometry (by adaptation of the method of TOMITA et al. 1990) at 470 nm. The development of these assays was carried out using standard solutions of melanin (Sigma, ref. M 8631) in order to define the comparative sensitivity and the minimum level of detection by either of the methods. The μg is the minimum level which can be assayed by spectrophotometry; the ng is the lower level which can be assayed by HPLC. It should however, be observed that these two techniques, especially the spectrophotometric assay, can be used since, for our cell cultures, 15 embryonic explants associated in culture are sufficient to allow quantification (by spectrophotometry).

[3] = Protection of treated animals given a lethal dose of LPS; format: in vivo, mice

Substance: [(DL) Lip] His - D.homoPhe - Arg - Trp - NH2 [PIV]
- mean decreases in IL1α ([1]; 50 μg/ml, five studies): 50%
- mean decreases in IL1α ([1]; 125 μg/ml, five studies): 50%
- mean decreases in IL1α ([1]; 200 μg/ml, five studies): 60%
- mean decreases in IL1α ([1]; all dosages, all the five studies): ~55%
- decrease in the synthesis of Interleukin-1α relative to the control ([1]; with the two methodologies used (SHEEHAN and DAYNES)): at least 50%
- cell proliferation of epidermis cells, mesenchymatous cells, fibroblasts (in words) [2]: no specific cell proliferation
- cytotoxic effect on epidermis cells, mesenchymatous cells, fibroblasts (in words) [2]: no cytotoxic effect
- differentiation and behaviour in vitro of epidermis cells, mesenchymatous cells, fibroblasts (in words) [2]: no retardation or accelaration
- number of neurons and size of the cell bodies, neuroblasts (in words) [2]: no specific stimulating effect
- size and spreading of epidermis cells, mesenchymatous cells, fibroblasts (in words) [2]: no stimulating effect
- effect on melanocyte differentiation, dose/response trial (in words) ([2]; 0.01 μg/ml): no effect
- effect on melanocyte differentiation, dose/response trial (in words) ([2]; 1 μg/ml): optimal effect
- effect on melanogenesis (in words) ([2]; 0.1 and 1 μg/ml): Stimulating effect
- Stimulation (melanin, treated vs control cultures) ([2]; 1st to 4th experiment): 2.5 × and 2.3 × and 1.5 ×
- appearance of phenotypic differentiation of the melanocytes (in words) ([2]; treated cultures, from the 2nd day after innoculation, vs control cultures): more rapidly
- number of melanocytes (in words) ([2]; treated vs control cultures): increase
- Protection of treated animals (mortality) [3]: highly significant retarded mortality rate
